According to patent US11439607B2 (Paracelsus Neuroscience I, LLC, priority 2016, dated 2022):
“Also recorded” adds a separate entry of the source. Where two headings read alike, the source gives them in different places.

How the values were obtained:
[1] = rats, post dose; cited from earlier work
Oxaliplatin model = test: Oxaliplatin - Acetone test (reaction time); format: in vivo, rodent; conditions: Senicapoc 100 mg/kg PO, 240 min after treatment
Procedure: (§1) Depending on the test, the percentage of activity was calculated from the mean value of the vehicle-treated animals and compared to naïve animals, control paw or cut-off value.

Rat primary microglia = test: Microglial IL-1β release (LPS priming, BzATP); format: cell-based
Procedure: Rat primary microglia were primed with 3 EU/mL of ultra-pure Lipopolysaccharide (control standard endotoxin (CSE) Associates of Cape Cod, Falmouth, Mass.). […] Cell free supernatants were assayed for IL-1β using a custom rat cytokine assay (N451A-1; MesoScale Discovery, Rockville, Md.). IC50S were determined using Prism (Graphpad, San Diego, Calif.)
After 24 hours, media was assayed for nitrite (stable metabolite of NO). […] Primary rat cortical microglia were also treated with LPS (3 EU/ml, 3 hours) to stimulate the production of pro-IL-1β.

melatonin 1A receptors = biological target: T1, melatonin 1A receptors (Homo sapiens, UniProt P48039); test: Off target screen (CEREP panel) and dose response; format: binding
T1 construct: CEREP (contract screening)
T1 sequence (P48039 whole entry): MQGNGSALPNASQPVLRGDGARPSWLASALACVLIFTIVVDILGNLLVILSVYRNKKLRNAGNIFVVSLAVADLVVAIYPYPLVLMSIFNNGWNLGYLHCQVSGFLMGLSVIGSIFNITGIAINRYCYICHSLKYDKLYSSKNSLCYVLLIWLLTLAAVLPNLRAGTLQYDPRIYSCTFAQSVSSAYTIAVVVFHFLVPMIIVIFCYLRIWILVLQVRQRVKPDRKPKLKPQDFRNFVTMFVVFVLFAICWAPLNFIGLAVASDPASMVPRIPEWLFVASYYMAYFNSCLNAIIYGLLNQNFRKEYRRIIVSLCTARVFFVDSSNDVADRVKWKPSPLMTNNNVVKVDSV

Carrageenan model = test: Carrageenan - Paw pressure test; format: in vivo, rodent; conditions: Senicapoc 100 mg/kg PO, 240 min after treatment
Procedure: as §1

Kaolin model = test: Kaolin - Gait score; format: in vivo, rodent; conditions: Senicapoc 100 mg/kg PO, 240 min after treatment
Procedure: as §1

Healthy rats = Healthy rats - Tail flick test; format: in vivo; conditions: Senicapoc 100 mg/kg PO, 240 min after treatment
Procedure: as §1

Acetic acid test = Acetic acid test - Abdominal cramps; format: in vivo, rodent; conditions: Senicapoc 100 mg/kg PO, 240 min after treatment
Procedure: as §1

Brennan model = Brennan model - Electronic Von Frey test; format: in vivo, rodent; conditions: Senicapoc 100 mg/kg PO, 240 min after treatment
Procedure: as §1

κ-opioid receptors = biological target: T2, κ-opioid receptors (Homo sapiens, UniProt P41145); test: Off target screen (CEREP panel) and dose response; format: binding
T2 construct: CEREP (contract screening)
T2 sequence (P41145 whole entry): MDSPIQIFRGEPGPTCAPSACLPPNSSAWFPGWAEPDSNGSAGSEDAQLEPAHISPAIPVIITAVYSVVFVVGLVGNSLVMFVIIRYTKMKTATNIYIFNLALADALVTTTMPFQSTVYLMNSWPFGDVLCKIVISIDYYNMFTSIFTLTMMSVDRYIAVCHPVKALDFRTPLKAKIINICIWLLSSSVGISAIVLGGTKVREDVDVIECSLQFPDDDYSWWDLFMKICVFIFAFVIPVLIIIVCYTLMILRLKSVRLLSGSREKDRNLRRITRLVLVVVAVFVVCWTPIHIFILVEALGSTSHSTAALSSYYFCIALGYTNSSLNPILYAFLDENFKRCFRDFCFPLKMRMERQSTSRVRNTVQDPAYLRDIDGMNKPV

Formalin test = Formalin test - Score; format: in vivo, rodent; conditions: Senicapoc 100 mg/kg PO, 240 min after treatment
Procedure: as §1

μ-opioid receptors = biological target: T3, μ-opioid receptors (Homo sapiens, UniProt P35372); test: Off target screen (CEREP panel) and dose response; format: binding
T3 construct: CEREP (contract screening)
T3 sequence (P35372 whole entry): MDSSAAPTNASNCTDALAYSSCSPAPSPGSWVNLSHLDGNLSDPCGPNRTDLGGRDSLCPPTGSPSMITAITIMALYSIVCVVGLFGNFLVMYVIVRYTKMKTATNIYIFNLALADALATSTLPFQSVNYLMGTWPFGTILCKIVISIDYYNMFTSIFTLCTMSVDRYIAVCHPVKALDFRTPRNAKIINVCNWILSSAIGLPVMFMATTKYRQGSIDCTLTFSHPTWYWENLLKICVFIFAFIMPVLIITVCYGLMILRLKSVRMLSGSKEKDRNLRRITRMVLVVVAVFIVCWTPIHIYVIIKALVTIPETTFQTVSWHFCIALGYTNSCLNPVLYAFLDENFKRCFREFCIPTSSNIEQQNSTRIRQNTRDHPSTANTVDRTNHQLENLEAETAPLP

rats = test: Rat locomotor activity; format: in vivo; conditions: 4 hours after dosing
Description: Male Sprague-Dawley rats (Charles River) weighing 225-275 g on the test day were divided into groups of 8 animals per treatment. […] Following the pre-treatment time, rats were placed into 50×25×20 cm cages lined with crushed corn cob bedding (Bed-o'Cobs ¼ inch, Andersons Lab Bedding, Maumee, Ohio, USA). The cages were positioned in a Smart Frame Cage Rack (Kinder Scientific, Poway, Calif., USA) outfitted with an infrared beam array (7 X×15 Y). Rats were allowed to move freely within the cage for 1 hour with beam breaks continuously recorded using MotorMonitor™ (Kinder Scientific,). Time course and cumulative data were analyzed with Prism 4 (GraphPad, La Jolla, Calif.). One-way ANOVA with Tukey's Multiple Comparison Post-Hoc Test was used for statistical analysis.

Bennett model = Bennett model - Paw pressure test; format: in vivo, rodent; conditions: Senicapoc 100 mg/kg PO, 240 min after treatment
Procedure: as §1

[2] = Plasma and brain free fraction by equilibrium dialysis; format: in vitro ADME, rat; design: dose or concentration left out as unconfirmed
Procedure: Briefly, naive plasma and brain tissues were homogenized in 3× and 4× w/v in homogenization buffer (50:30:20 H2O:IPA:DMS0), respectively. […] Following equilibration, the buffer sample was fortified with a fixed volume of blank tissue homogenate and the tissue sample was fortified with a fixed volume of buffer. Protein precipitation was performed with ice cold acetonitrile in the presence of an analytical internal standard. The supernatants were quantified for senicapoc using LC-MS/MS as described earlier.

[3] = full dose response curve, functional testing

IC50 (Rat primary microglia; FIG. 2B legend, LPS 3EU/ml 24 hours, n=3, read-out: IC50, inhibition of IL-1β release from primary microglia (FIG. 2B legend)): 1.3 nM | IC50 (Rat primary microglia; LPS 3 EU/ml priming, BzATP 1 mM, read-out: IC50, inhibition of IL-1β release from primary microglia): 15 nM | inhibition at 10 µM (melatonin 1A receptors; 10 μM): > 50% | IC50 (melatonin 1A receptors; [3]): 1700 nM | inhibition at 10 µM (κ-opioid receptors; 10 μM): > 50% | IC50 (κ-opioid receptors; [3]): 19000 nM | inhibition at 10 µM (μ-opioid receptors; 10 μM): > 50% | IC50 (μ-opioid receptors; [3]): 12000 nM | fraction unbound at 2.5 h ([2]; brain homogenate (4x w/v in homogenization buffer), rat brain homogenate, read-out: In vitro rat brain free fraction (UBBr)): 0.008 | fraction unbound at 2.5 h ([2]; plasma (diluted 3x w/v in homogenization buffer), rat plasma, read-out: In vitro rat plasma free fraction (UBP)): 0.027
Structure (SMILES): NC(=O)C(c1ccccc1)(c1ccc(F)cc1)c1ccc(F)cc1 [Senicapoc]
Tmax (time of maximum plasma concentration) [1]: 4 h | % of activity vs. vehicle (Oxaliplatin model): 68% | % of activity vs. vehicle (Carrageenan model): 116% | % of activity vs. vehicle (Kaolin model): 29% | % of activity vs. vehicle (Healthy rats): 9% | % of activity vs. vehicle (Acetic acid test): −32% | % of activity vs. vehicle (Brennan model): −7% | % of activity vs. vehicle (Formalin test; early phase): 14% | % of activity vs. vehicle (Formalin test; late phase): 8% | Effect on locomotor activity (total distance traveled) (rats; 30 mg/kg p.o.): no effect; also recorded: did not significantly affect | Effect on locomotor activity (total distance traveled) (rats; 100 mg/kg p.o.): no effect; also recorded: did not significantly affect | % of activity vs. vehicle (Bennett model): 69%
